Assay results from publication PMC3778407, “Topochemical control of the photodimerization of aromatic compounds by γ-cyclodextrin thioethers in aqueous solution” (Beilstein Journal of Organic Chemistry, 2013).
Converted amounts (≈) assume the structure as drawn. Read-outs that look alike come from different tables or passages of the source.

What was measured:
[1] = cited from earlier work
[2] = Aqueous solubility of guests and solubilization by γ-CD thioethers; format: physicochemical; settings: read-out: [COU]0 solubility of COU
Protocol: (§1) Because the concentration of the free guest [G]free is determined by two coupled thermodynamic equilibria (Equation 1). The 2-phase solubility equilibrium is expressed by Equation 2 and the equilibrium of complexation by the CD host is formulated in Equation 3. The guest dissolves until the concentration of free guest is equal to the solubility of the guest, [G]0 = [G]free. Consequently, the lower the solubility of the guest in water, the lower the fraction of uncomplexed guests. The lower the concentration of the free guest, the lower the contribution of undesirable and non-specific photodimerization to the total quantum yield, according to Equation 4. Consequently, lowering the aqueous solubility of COU by the addition of salt, taking advantage of the so-called “salting-out effect” [46] appeared to be a plausible way to enhance the reaction selectivity of the syn-HH dimer.
(§2) Photoreaction procedures: Aqueous solutions of the native CDs or γ-CD thioethers (25 mL, 6.0 mM) were added into glass vials containing excess amounts of the guest molecules. To evaluate the salting-out effect on the photo-product distribution of COU, different amounts of sodium sulfate were added to the vials to obtain the desired final salt concentration (Na2SO4 concentration: 0, 0.5, 1.0, and 1.5 M). Sample solutions were thoroughly degassed using sonication. The vials were tightly sealed, protected from light, and magnetically stirred at room temperature. After 72 h, the resulting suspensions were filtered through syringe filters. The concentrations of the reactants in the CD solutions were determined from the UV–vis extinction coefficients at the absorption maxima.

[3] = design: method as in PMID 21739610; settings: K/10^9 [M^−2]; host/guest 1:2; cited from earlier work
[4] = 1:2 (host/guest) binding constant of COU in γ-CD thioether 2 from solubility measurements
Protocol: as §1
Both effects based on the salt concentration led to a significant reduction in the contribution of the photodimerization of free COU to the total quantum yield Φ in Equation 4. Taking into account the molar fraction of the formation of syn-HH in water [drawing 5] from Table 3 and in the complex [drawing 6] , and assuming the quantum yield for the complex as Φcomplex = 19%, the total molar fraction [drawing 7] was calculated according to Equation 5, which was derived from Equation 4. The concentration of complexed COU, [COU]C, was determined as the increase in the solubility of COU upon the addition of the host. The calculated total quantum yields and molar fractions of the syn-HH isomer, listed in Table 5, are in good agreement with the measured values, listed in Table 4. It also shoes, that the binding constant K, calculated according to the law of mass action for the 1:2 (host/guest) complex, tremendously increases with the salt concentration leading to a strong increase of the complexed portion of COU. In contrast to the previous ANT system, the quantum yield of COU photodimerization increases with the binding const K, because K is much lower for COU than for ANT so that contribution of free COU is not negligible.
as §2, with “The vials were tightly sealed, protected from light, and magnetically stirred at room temperature. After 72 h, the resulting suspensions were filtered through syringe filters.” left out

[5] = design: method as in PMID 21739610; settings: K/10^6 M^−2; 1:2 host/guest; cited from earlier work

c1ccc2cc3ccccc3cc2c1 [ANT, anthracene]
solubility of free ANT ([1]; water): 0.0004 mM

O=c1ccc2ccccc2o1 [COU, coumarin]
solubility at 72 h ([2]; water with Na2SO4, thermodynamic from solid, [Na2SO4] 0.5 M): 8.5 mM (≈ 1240 µg/mL)
solubility at 72 h ([2]; water with Na2SO4, thermodynamic from solid, [Na2SO4] 1.0 M): 4.7 mM (≈ 687 µg/mL)
solubility at 72 h ([2]; water with Na2SO4, thermodynamic from solid, [Na2SO4] 1.5 M): 2.6 mM (≈ 380 µg/mL)
solubility at 72 h ([2]; water, thermodynamic from solid, [Na2SO4] 0.0 M): 15.2 mM (≈ 2220 µg/mL)
aqueous solubility ([1]; water): 15 mM (≈ 2190 µg/mL)

NCCSC[C@H]1O[C@@H]2O[C@H]3[C@H](O)[C@@H](O)[C@@H](O[C@H]4[C@H](O)[C@@H](O)[C@@H](O[C@H]5[C@H](O)[C@@H](O)[C@@H](O[C@H]6[C@H](O)[C@@H](O)[C@@H](O[C@H]7[C@H](O)[C@@H](O)[C@@H](O[C@H]8[C@H](O)[C@@H](O)[C@@H](O[C@H]9[C@H](O)[C@@H](O)[C@@H](O[C@H]1[C@H](O)[C@H]2O)O[C@@H]9CSCCN)O[C@@H]8CSCCN)O[C@@H]7CSCCN)O[C@@H]6CSCCN)O[C@@H]5CSCCN)O[C@@H]4CSCCN)O[C@@H]3CSCCN [Host 1]
1:2 binding constant K of ANT [3]: 22.8 10^9 M^−2
highest concentration of ANT achieved, [ANT] ([1]; 6 mM solution of host in water): 0.04 mM

O=C(O)CSC[C@H]1O[C@@H]2O[C@H]3[C@H](O)[C@@H](O)[C@@H](O[C@H]4[C@H](O)[C@@H](O)[C@@H](O[C@H]5[C@H](O)[C@@H](O)[C@@H](O[C@H]6[C@H](O)[C@@H](O)[C@@H](O[C@H]7[C@H](O)[C@@H](O)[C@@H](O[C@H]8[C@H](O)[C@@H](O)[C@@H](O[C@H]9[C@H](O)[C@@H](O)[C@@H](O[C@H]1[C@H](O)[C@H]2O)O[C@@H]9CSCC(=O)O)O[C@@H]8CSCC(=O)O)O[C@@H]7CSCC(=O)O)O[C@@H]6CSCC(=O)O)O[C@@H]5CSCC(=O)O)O[C@@H]4CSCC(=O)O)O[C@@H]3CSCC(=O)O [Host 2]
binding constant K of COU complexed in 2 ([4]; [Na2SO4] 0.0 M, 1:2 host/guest, law of mass action, from solubility measurements): 2 10^3 M^−2
binding constant K of COU complexed in 2 ([4]; [Na2SO4] 0.5 M): 30 10^3 M^−2
binding constant K of COU complexed in 2 ([4]; [Na2SO4] 1.0 M): 97 10^3 M^−2
binding constant K of COU complexed in 2 ([4]; [Na2SO4] 1.5 M): 1000 10^3 M^−2
1:2 binding constant K of ANT [3]: 7.7 10^9 M^−2

O=S(=O)(O)CCSC[C@H]1O[C@@H]2O[C@H]3[C@H](O)[C@@H](O)[C@@H](O[C@H]4[C@H](O)[C@@H](O)[C@@H](O[C@H]5[C@H](O)[C@@H](O)[C@@H](O[C@H]6[C@H](O)[C@@H](O)[C@@H](O[C@H]7[C@H](O)[C@@H](O)[C@@H](O[C@H]8[C@H](O)[C@@H](O)[C@@H](O[C@H]9[C@H](O)[C@@H](O)[C@@H](O[C@H]1[C@H](O)[C@H]2O)O[C@@H]9CSCCS(=O)(=O)O)O[C@@H]8CSCCS(=O)(=O)O)O[C@@H]7CSCCS(=O)(=O)O)O[C@@H]6CSCCS(=O)(=O)O)O[C@@H]5CSCCS(=O)(=O)O)O[C@@H]4CSCCS(=O)(=O)O)O[C@@H]3CSCCS(=O)(=O)O [Host 3]
1:2 binding constant K of ANT [3]: 6.8 10^9 M^−2
binding constant K of ACE [5]: 37 10^6 M^−2

CC(SC[C@H]1O[C@@H]2O[C@H]3[C@H](O)[C@@H](O)[C@@H](O[C@H]4[C@H](O)[C@@H](O)[C@@H](O[C@H]5[C@H](O)[C@@H](O)[C@@H](O[C@H]6[C@H](O)[C@@H](O)[C@@H](O[C@H]7[C@H](O)[C@@H](O)[C@@H](O[C@H]8[C@H](O)[C@@H](O)[C@@H](O[C@H]9[C@H](O)[C@@H](O)[C@@H](O[C@H]1[C@H](O)[C@H]2O)O[C@@H]9CSC(C)C(=O)O)O[C@@H]8CSC(C)C(=O)O)O[C@@H]7CSC(C)C(=O)O)O[C@@H]6CSC(C)C(=O)O)O[C@@H]5CSC(C)C(=O)O)O[C@@H]4CSC(C)C(=O)O)O[C@@H]3CSC(C)C(=O)O)C(=O)O (some centres unmarked) [Host 4]
1:2 binding constant K of ANT [3]: 3.4 10^9 M^−2

OCC(O)CSC[C@H]1O[C@@H]2O[C@H]3[C@H](O)[C@@H](O)[C@@H](O[C@H]4[C@H](O)[C@@H](O)[C@@H](O[C@H]5[C@H](O)[C@@H](O)[C@@H](O[C@H]6[C@H](O)[C@@H](O)[C@@H](O[C@H]7[C@H](O)[C@@H](O)[C@@H](O[C@H]8[C@H](O)[C@@H](O)[C@@H](O[C@H]9[C@H](O)[C@@H](O)[C@@H](O[C@H]1[C@H](O)[C@H]2O)O[C@@H]9CSCC(O)CO)O[C@@H]8CSCC(O)CO)O[C@@H]7CSCC(O)CO)O[C@@H]6CSCC(O)CO)O[C@@H]5CSCC(O)CO)O[C@@H]4CSCC(O)CO)O[C@@H]3CSCC(O)CO (some centres unmarked) [Host 5]
1:2 binding constant K of ANT [3]: 3.7 10^9 M^−2

O=C(O)CCSC[C@H]1O[C@@H]2O[C@H]3[C@H](O)[C@@H](O)[C@@H](O[C@H]4[C@H](O)[C@@H](O)[C@@H](O[C@H]5[C@H](O)[C@@H](O)[C@@H](O[C@H]6[C@H](O)[C@@H](O)[C@@H](O[C@H]7[C@H](O)[C@@H](O)[C@@H](O[C@H]8[C@H](O)[C@@H](O)[C@@H](O[C@H]9[C@H](O)[C@@H](O)[C@@H](O[C@H]1[C@H](O)[C@H]2O)O[C@@H]9CSCCC(=O)O)O[C@@H]8CSCCC(=O)O)O[C@@H]7CSCCC(=O)O)O[C@@H]6CSCCC(=O)O)O[C@@H]5CSCCC(=O)O)O[C@@H]4CSCCC(=O)O)O[C@@H]3CSCCC(=O)O [Host 6]
1:2 binding constant K of ANT [3]: 6.5 10^9 M^−2
binding constant K of ACE [5]: 27 10^6 M^−2

COCCOCCOCCSC[C@H]1O[C@@H]2O[C@H]3[C@H](O)[C@@H](O)[C@@H](O[C@H]4[C@H](O)[C@@H](O)[C@@H](O[C@H]5[C@H](O)[C@@H](O)[C@@H](O[C@H]6[C@H](O)[C@@H](O)[C@@H](O[C@H]7[C@H](O)[C@@H](O)[C@@H](O[C@H]8[C@H](O)[C@@H](O)[C@@H](O[C@H]9[C@H](O)[C@@H](O)[C@@H](O[C@H]1[C@H](O)[C@H]2O)O[C@@H]9CSCCOCCOCCOC)O[C@@H]8CSCCOCCOCCOC)O[C@@H]7CSCCOCCOCCOC)O[C@@H]6CSCCOCCOCCOC)O[C@@H]5CSCCOCCOCCOC)O[C@@H]4CSCCOCCOCCOC)O[C@@H]3CSCCOCCOCCOC [Host 7]
1:2 binding constant K of ANT [3]: 7.7 10^9 M^−2
